Measured values: PubChem BioAssay (NCI)
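Interpolation was linear, between the two tested concentrations surrounding the appropriate level; five concentrations were tested over 48 hours in 96-well plates. TGI: concentration producing complete growth inhibition.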

Assays:
Assay in all cases: NCI tumour cell line growth inhibition, 48 h
DMS 273 small cell lung = system: DMS 273 small cell lung
U251 CNS = system: U251 CNS
RPMI-8226 leukemia = system: RPMI-8226 leukemia
HT29 colon = system: HT29 colon
OVCAR-4 ovarian = system: OVCAR-4 ovarian
IGROV1 ovarian = system: IGROV1 ovarian
MOLT-4 leukemia = system: MOLT-4 leukemia
CAKI-1 renal = system: CAKI-1 renal
SK-MEL-2 melanoma = system: SK-MEL-2 melanoma
LXFL 529 NSCLC = system: LXFL 529 NSCLC

| Structure (SMILES) | TGI (DMS 273 small cell lung) [µM] | TGI (U251 CNS) [µM] | TGI (RPMI-8226 leukemia) [µM] | TGI (HT29 colon) [µM] | TGI (OVCAR-4 ovarian) [µM] | TGI (IGROV1 ovarian) [µM] | TGI (MOLT-4 leukemia) [µM] | TGI (CAKI-1 renal) [µM] | TGI (SK-MEL-2 melanoma) [µM] | TGI (LXFL 529 NSCLC) [µM] |
| --- | --- | --- | --- | --- | --- | --- | --- | --- | --- | --- |
| N#Cc1c(-c2ccc(Cl)c(Cl)c2)c(-c2ccc(Cl)c(Cl)c2)nn(CC(=O)O)c1=O | > 100 | > 100 | > 100 | > 100 | > 100 | > 100 | > 100 | > 100 | > 100 | > 100 |
| CC(C)(CN1CCCCC1)C(=O)/C=C/c1ccc(/C=C/C(=O)C(C)(C)CN2CCCCC2)cc1 | 1.23 | 1.18 | 0.663 | 0.514 | 1.47 | 1.52 | 0.33 | 0.904 | 4.62 | 0.682 |
| CCCCCN(CCCCC)C(=O)[C@@H](CCC(=O)O)NC(=O)c1cc2ccccc2[nH]1 | > 100 | 78.1 | 35.4 | > 100 | > 100 | > 100 | 46.6 | 67.6 | 62.2 | > 100 |
| O=C1NC(Cc2ccc(O)cc2)C(=O)N2CCCC12 (stereo not given) | > 100 | > 100 | > 100 | > 100 | > 100 | > 100 | > 100 | > 100 | > 100 | > 100 |
| O=C(NCCCCCCCCCCCCNC(=O)c1cccc2ccccc12)c1cccc2ccccc12 | > 100 | > 59.5 | > 100 | > 100 | 20.5 | > 100 | > 100 | 68.2 | > 100 | > 100 |
| CCC(C)CCOC(=O)c1ccc(N=Cc2ccc(C=Nc3ccc(C(=O)OCCC(C)CC)cc3)cc2)cc1 (stereo not given) | > 100 | > 100 | > 100 | > 100 | > 100 | > 100 | > 100 | > 100 | > 100 | > 100 |
| CC1=Nc2ccccc2S/C1=C(/C)NNS(=O)(=O)c1ccc(C)cc1 | > 100 | > 100 | > 100 | > 100 | > 100 | > 100 | > 100 | > 100 | > 100 | > 100 |
| Cn1c2c(c3ccccc31)CCN(CCCCN1CCCCC1)C2=O | > 100 | > 100 | > 100 | > 100 | > 100 | > 100 | > 100 | > 100 | > 100 | > 100 |
| CC(=O)O[C@H]1C(=O)[C@@]2(C)C(C(OC(=O)c3ccccc3)[C@]3(O)C[C@H](OC(=O)C(OC(=O)CCCC(=O)NCCCN(C)C)C(NC(=O)c4ccccc4)c4ccccc4)C(C)=C1C3(C)C)C1(OC(C)=O)COC1C[C@@H]2O (stereo not given in full) | 0.553 | 20.8 | 28.7 | 2.22 | > 87.9 | 59 | 12.5 | > 100 | 24.3 | 20.9 |
